Laboratory results from patent publication US20130244875A1, “METHODS AND COMPOSITIONS FOR IMPROVING PLANT HEALTH” (priority 2006, published 2013).
Like-named read-outs stand apart in the source and are kept apart here.

What was measured:
[1] = tested on: PR-2, i.e., β-1,3-glucanase; test: Induction of PR2 (northern blot) in DMO soybean sprayed with dicamba or DCSA; type: in vivo
Method: A 14 hour minimum photoperiod was provided with supplemental light at about 600 μE (micro-Einsteins) as needed. Trials were established in a randomized block design randomized by rate with 4 to 6 replications of each treatment.
All herbicide applications were made with the track sprayer using a Teejet® 9501E flat fan nozzle (Spraying Systems Co, Wheaton, Ill.) with air pressure set at a minimum of 24 psi (pounds per square inch), or 165 kpa (kilopascals)). The spray nozzle was kept at a height of about 16 inches above the top of plant material for spraying. The spray volume was 10 gallons per acre or 93 liters per hectare. Applications were made when plants had reached V-3 stage.
Events carrying a DMO transgene in their genome were grown and treated with dicamba (Clarity®, BASF) at 1 lb/Acre at Post-V3 stage. Leaf samples were harvested after 0, 3, 8, 24, 48, 72 hrs after treatment (HAT) and frozen for further analysis. In another experiment, DMO-containing plants were sprayed with either dicamba or DCSA at 0.25, 0.5 and 1 lb/Acre rate and tissue samples were collected 24 HAT. RNA was extracted and analyzed by northern blot analysis using PR-2, i.e., β-1,3-glucanase as a probe. PR-2 is a pathogenesis-related protein known to degrade […] and thus provide protection against fungal pathogens (U.S. Pat. No. 5,670,706 and Uknes et al., 1992).

[2] = 24 hours at 30° C., RP-HPLC
Method: Leaf strip and whole plant studies were performed using liquid chromatography assays to determine metabolism of dicamba to DCSA in soybeans. Leaf tissue was removed from wild-type soybean plants and soybean plants transgenic for the DMO gene and were cut into 1 mm strips, the strips then incubated in 25 mM Tris pH 7.5 with radiolabeled dicamba (14C dicamba) for 24 hours at 30° C. After incubation, the leaf tissue was homogenized with a spinning pestle, acidified, solids pelleted by centrifugation and an aliquot of the supernatant analyzed by RP-HPLC equipped with a radiation detector.

PR5 = test: Induction of PR5 (northern blot) by dicamba or DCSA; type: in vivo, soybean; details: probe specific to PR5; procedures as for PR2
[3] = tested on: transgenic soybean seeds containing the DMO gene; details: 22° C., 1 low, 2 moderate, 3 high, N=10
Method: Transgenic soybean seeds containing the DMO gene were germinated in the presence of 100 or 200 mM sodium chloride (NaCl, salt). […] A diglycoamine salt of dicamba (Clarity) was applied to 113.5 g samples of soy in a water based slurry that contained an agricultural dye. Slurry and dye rates were 8 and 0.5 fl oz/cwt. Aliquots of each dicamba solution were added to seeds contained in a glass jar and agitated. After uniform coverage was attained, seeds were placed on towels and allowed to dry. Non-DMO soybeans were treated at rates of 0, 0.5, 2.5, and 5.0 g ai/100 kg. DMO soybeans were treated with 0, 0.5 and 2.5 g ai/100 kg. Seed germination was scored DAT (2 days after treatment) or 5DAT (days after treatment) at 22° C. The germination rate was scored as 1—low, 2—moderate, 3—high for each treatment, N=10.

[4] = tested on: soybean plants transgenic for the DMO gene; details: DMO transgenic soybean sprayed at up to 2.5 lb/A; various times; RP-HPLC
Method: For whole plant assays, soybean plants transgenic for the DMO gene were treated with 14C dicamba by spraying the plants with a solution containing the 14C dicamba at a rate up to 2.5 lb/A. Leaf samples from the treated plants were collected at various times after treatment and analyzed for the DMO metabolites by RP-HPLC. The leaf tissue was homogenized with a spinning pestle, acidified, solids pelleted by centrifugation and an aliquot of the supernatant analyze by RP-HPLC equipped with a radiation detector.

transgenic soybean = test: Soybean yield field trials with dicamba treatments
Method: The yield enhancing-benefit of DSCA was tested by growing non-transgenic and transgenic plants and applying dicamba to transgenic plants and harvesting the seeds. Non-transgenic and transgenic soybean seeds were planted near the beginning of the growing season in several locations at the time of best possible growth conditions such as soil moisture, temperature, and seeding depth. Across all locations seeds were planted under split-plot design with dicamba treatments as whole-plot effects and events as split-plot effects. The design details were as follows: 6 locations, 2 replications/location, 2 rows/plot, row length 12 feet (+3 ft alley), 9 seeds/foot, 108 seeds/row, 5 events (events 1-4 and a fifth event that was segregating); and 4 treatments as shown below in Table 4. In all, 240 plots were planted at 6 locations (40 per location).
Four non-transgenic border rows were planted all around the trial using a known commercial line such as A3525. Optimum production and management practices known in the art were followed. Maximum pest control and disease control was practiced as needed to prevent confounding effects of dicamba applications. The field was irrigated as needed according to standard practices.
The treatments were: untreated (Untrt); 1 lb/A dicamba at planting followed by 1 lb/A dicamba at V3 growth stage (1×1); 2 lb/A dicamba at planting followed by 2 lb/A dicamba at V3 growth stage (2×2); and 1 lb/A dicamba at planting followed by 1 lb/A dicamba at V3 growth stage followed by 1 lb/A dicamba at R1 stage (1×1×1).

[5] = 200 mM NaCl, 0.5 g ai/100 kg dicamba seed treatment, 0.0 dicamba 1
[6] = 200 mM NaCl, 2.5 g ai/100 kg dicamba seed treatment, 0.0 dicamba 1

**Q.** Which results are given for `COc1c(Cl)ccc(Cl)c1C(=O)O` [Dicamba, 3,6-dichloro-2-methoxybenzoic acid]?
**A.** time of peak induction of PR2 ([1]; DMO soybean, dicamba 1 lb/Acre at Post-V3): 48 h; induction of PR2 at various time points ([1]; DMO soybean, dicamba 1 lb/Acre at Post-V3, 0-72 HAT, no induction in untreated plants): induction of PR2; induction of PR2 at various rates ([1]; two transgenic soybean lines, 0.25, 0.5 and 1 lb/Acre, 24 hrs after treatment, no induction in untreated or water only): induction of PR2; metabolism of radiolabeled dicamba ([2]; leaf strips of transgenic DMO gene containing soybean): metabolized to DCSA and other polar metabolites; metabolism of radiolabeled dicamba ([2]; leaf strips of wild-type soybean): not in the wild-type soybean plants; induction of PR5 (PR5): Induction of PR5; Germination rating 2DAT ([3]; 100 mM NaCl, 0.5 g ai/100 kg dicamba seed treatment, 0.0 dicamba 1): 2; Germination rating 5DAT ([3]; 100 mM NaCl, 0.5 g ai/100 kg dicamba seed treatment, 0.0 dicamba 2): 3; Germination rating 2DAT ([3]; 100 mM NaCl, 2.5 g ai/100 kg dicamba seed treatment, 0.0 dicamba 1): 2; Germination rating 5DAT ([3]; 100 mM NaCl, 2.5 g ai/100 kg dicamba seed treatment, 0.0 dicamba 2): 3; Germination rating 2DAT [3, 5]: 1.5; Germination rating 5DAT [3, 5]: 2; Germination rating 2DAT [3, 6]: 1.5; Germination rating 5DAT [3, 6]: 1; metabolites of 14C dicamba in leaf samples [4]: DCSA is produced as a metabolite of dicamba; yield compared with unsprayed controls (transgenic soybean; DMO soybean, dicamba 1.5 lb ae/Acre Pre, Post or both, in 4/5 events and 13/15 treatments, 6 locations): an increase or equivalent yield to unsprayed controls; increase in seed yield (transgenic soybean; three DMO soybean events, dicamba treatments vs untreated, average of 15 locations): up to 4.6%; maturity of dicamba treated plants compared with untreated plant (transgenic soybean; transgenic soybean, agronomic and efficacy trials): no delay in maturity
